Key:
[1] = molecular target: T1, recombinant alpha-synuclein (SYN) protein (Homo sapiens, UniProt P37840); test: Precipitation of recombinant alpha-synuclein spiked into human plasma by agent I, protein gel and Western blotting; settings: 50 to 500 mg/ml agent I, 60 minutes at 37° C., Western blotting
T1 construct: purchased rPeptide
Protocol: After migration, two options are used: • The protein gel is stained with Coomassie Blue by adding gelcode blue stain reagent (Pierce) overnight at ambient temperature with shaking. […] 9.2 Detection in the Presence of the Agent I
The pellets are recovered and are separated from the supernatants. All the fractions are conserved. The pellets are taken up with 250 μl of SDS buffer. After denaturation, all the fractions are analyzed by the Western blotting technique.

[2] = molecular target: T2, phosphorylated Tau protein (Homo sapiens, UniProt P10636); test: Precipitation of phosphorylated Tau protein from brain extracts spiked into plasma by agent I, PhosphoTau ELISA of pellet and supernatant; settings: TET 100 mg/ml, 60 minutes at 37° C.
T2 construct: The assays are carried out with 25 ng of brain extracts; from tissue; host or cells: brain extracts from Alzheimer (AD+) and non-Alzheimer (AD-) patients, diluted in a pool of normal plasmas
T2 sequence (P10636 1-441 isoform P10636-8): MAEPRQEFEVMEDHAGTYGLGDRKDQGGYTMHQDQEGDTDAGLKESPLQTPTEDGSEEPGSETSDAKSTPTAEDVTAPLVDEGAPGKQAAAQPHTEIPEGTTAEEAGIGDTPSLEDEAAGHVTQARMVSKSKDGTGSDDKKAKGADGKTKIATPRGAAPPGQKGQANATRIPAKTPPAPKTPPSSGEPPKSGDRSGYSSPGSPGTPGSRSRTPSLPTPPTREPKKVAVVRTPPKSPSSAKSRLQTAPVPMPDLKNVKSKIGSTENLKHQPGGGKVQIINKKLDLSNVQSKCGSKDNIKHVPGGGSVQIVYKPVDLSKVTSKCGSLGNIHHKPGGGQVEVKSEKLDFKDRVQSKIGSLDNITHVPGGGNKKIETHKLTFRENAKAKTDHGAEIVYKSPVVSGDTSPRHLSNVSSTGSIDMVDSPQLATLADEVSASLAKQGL
Protocol: The PhosphoTau Elisa assay is based on the use of Dynex microplates to which are bound 3 μg/ml of goat anti-mouse Fc antibodies (Pierce) in a 25 mM KHPO4 buffer (pH 7.2) containing 140 mM NaCl, 1 mM EDTA and 2 mM NaN3, for three hours at 24° C. The wells are then passivated with a TBS (25 mM Tris-HCl, pH 7.5, 140 mM NaCl)-casein (1%) buffer for 1 h at 24° C., and then incubated for 2 h at 24° C. with 3 μg/ml of Tau1 (Chemicon) and CP27 (AppliedNeuroSolutions) antibodies diluted in TBS casein buffer.
Standards and brain extracts are diluted in a pool of normal plasmas for these assays and deposited at a rate of 80 μL per well in duplicate. […] 20 μl of this mixture are added to each well and incubated for 66 hours at 24° C. […] The biotinylated antibody is detected with 0.4 μg/ml of a streptavidin-peroxydase conjugate (Pierce) diluted in TBS-casein buffer and incubated for 45 minutes at 24° C. A Lumiglo reagent (Kirkegaard and Perry laboratories, US) is added to each well and the chemiluminescence is read in a luminometer (Berthold, Centro LB 960). […]
The samples are then centrifuged for 10 minutes at 13 000 rpm. […] The samples are then ready to be deposited on plates.
The samples are then centrifuged for 10 minutes at 13 000 rpm. […] The samples are then ready to be deposited onto plates.

[3] = molecular target: T3, beta-amyloid peptide 1-42 (Homo sapiens, UniProt P05067); test: Circular dichroism of Aβ42 peptide with para-sulfonato-calix[4]arene; type: binding; settings: in the presence of para-sulfonato-calix[4]arene, peptide/calixarene 1/1 to 1/5
T3 construct: synthetic beta-amyloid peptide 42 amino acids in length (beta-A peptide 1-42)
T3 sequence (P05067 672-713): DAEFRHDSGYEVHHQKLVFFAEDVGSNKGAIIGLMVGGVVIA
Protocol: The analysis is carried out by circular dichroism.
(§1) The beta-amyloid peptide to be analyzed as defined above, also called Aβ42, is extemporaneously dissolved at a stock concentration of 2.2×10^−4M in a solution of trifluoroethanol (TFE) at 20% in water in order to structure the β-amyloid peptides. The para-sulfonato-calix[n]arenes, prepared as described in Da Silva, E. et al., 2003, Tetrahedron, 59(37): 7357-7364, are dissolved at 100 μM in 50 mM phosphate buffer. The samples are prepared so as to be able to obtain a final concentration of 10 μM of beta-amyloid peptide in a phosphate buffer, i.e. for a final volume of 500 μL. The peptide concentration/calixarene concentration ratios can vary from 1/0 to 1/5.
A β-amyloid control without para-sulfonato-calix[n]arene is carried out: 22.5 μL of Aβ42 stock solution at 2.2×10^−4M (5 nmol) in 20% TFE, 477.5 μL of 50 mM phosphate buffer.
The samples are analyzed by circular dichroism between 180 and 260 nm.
The control is a sample of Aβ42 peptide without calixarene (1/0). The solutions are prepared for a final volume of 500 μL. The Aβ42 peptide has a molar mass of 4514 g/mol, the para-sulfonato-calix[4]arene has a molar mass of 744 g/mol.

[4] = molecular target: T3, beta-amyloid peptide 1-42; test: Circular dichroism of Aβ42 peptide with chondroitin-6-sulfate; type: binding
Protocol: as §1, with “2.2×10^-4M” for “2.2×10^−4M”, “para-sulfonato-[…],” for “para-sulfonato-calix[n]arenes,”, “1/5. The samples are analyzed by circular dichroism between 180 and 260 nm. The protocol described in Example 5 above was repeated, with the exception that chondroitin-6-sulfate (Sigma) was used as agent II.” for “1/5.”

recombinant Tau protein = test: Capture/precipitation of recombinant Tau protein by agent II C6S, Western blotting of pellet and supernatant; settings: C6S 0.5 mM to 60 mM, 30 minutes at 37° C., centrifugation
Protocol: It is identical to that described in point 2.1 above.
The assays are carried out as indicated in point 2.2 above, apart from the fact that C6S prepared as indicated patent application WO2004/059322 is used, with a concentration range of from 0.5 mM to 60 mM.

[5] = chondroitin-6-sulfate at a concentration equal to that of Aβ42

NCCNCCNCCN [TET, triethylenetetramine]
completeness of precipitation of the Syn protein (protein found in the supernatant fraction) [1]: not complete | fraction in which the Syn protein is found after treatment with agent I [1]: found in the pellet | fraction in which the phosphorylated Tau protein is found after treatment with agent I [2]: found in the pellet

O=S(=O)(O)c1cc2c(O)c(c1)Cc1cc(S(=O)(=O)O)cc(c1O)Cc1cc(S(=O)(=O)O)cc(c1O)Cc1cc(S(=O)(=O)O)cc(c1O)C2 [para-sulfonato-calix[4]arene]
aperiodic structure (200 nm) of Aβ42 as share of visible structures [3]: 38% | α-helix structure (210 nm) of Aβ42 as share of visible structures [3]: more than 37% | β-sheets (220 nm) of Aβ42 as share of visible structures [3]: more than 26%

[H]/N=C(/N)N[C@H]1[C@H](O)[C@@H](O)[C@H](O[C@@H]2O[C@@H](C)[C@](O)(C=O)[C@H]2O[C@@H]2O[C@@H](CO)[C@H](O)[C@@H](O)[C@@H]2NC)[C@@H](N/C(N)=N\[H])[C@@H]1O [streptomycin]
completeness of precipitation of the Syn protein (protein found in the supernatant fraction) [1]: not complete | fraction in which the Syn protein is found after treatment with agent I [1]: found in the pellet

chondroitin-6-sulfate
aperiodic structure (at 200 nm) of Aβ42 [4, 5]: greater than 26% | α-helix (at 210 nm) of Aβ42 [4, 5]: more than 37% | β-sheet of Aβ42 at 220 nm [4, 5]: appears | secondary conformation adopted by Aβ42 ([4]; chondroitin-6-sulfate five times greater than the Aβ42 peptide): essentially aperiodic structure

p-sulfonato-3,7-(2-aminoethyloxy)calix-[6]-arene [C6S]
fraction in which the Tau protein and its digested forms are found after treatment with C6S (recombinant Tau protein): found in the pellet
